The values that follow come from patent US20250215030A1, “STAT MODULATORS AND USES THEREOF” (Recludix Pharma, Inc., priority 2022, published 2025).

Structures are written as SMILES.

T1 sequence (P40763 whole entry): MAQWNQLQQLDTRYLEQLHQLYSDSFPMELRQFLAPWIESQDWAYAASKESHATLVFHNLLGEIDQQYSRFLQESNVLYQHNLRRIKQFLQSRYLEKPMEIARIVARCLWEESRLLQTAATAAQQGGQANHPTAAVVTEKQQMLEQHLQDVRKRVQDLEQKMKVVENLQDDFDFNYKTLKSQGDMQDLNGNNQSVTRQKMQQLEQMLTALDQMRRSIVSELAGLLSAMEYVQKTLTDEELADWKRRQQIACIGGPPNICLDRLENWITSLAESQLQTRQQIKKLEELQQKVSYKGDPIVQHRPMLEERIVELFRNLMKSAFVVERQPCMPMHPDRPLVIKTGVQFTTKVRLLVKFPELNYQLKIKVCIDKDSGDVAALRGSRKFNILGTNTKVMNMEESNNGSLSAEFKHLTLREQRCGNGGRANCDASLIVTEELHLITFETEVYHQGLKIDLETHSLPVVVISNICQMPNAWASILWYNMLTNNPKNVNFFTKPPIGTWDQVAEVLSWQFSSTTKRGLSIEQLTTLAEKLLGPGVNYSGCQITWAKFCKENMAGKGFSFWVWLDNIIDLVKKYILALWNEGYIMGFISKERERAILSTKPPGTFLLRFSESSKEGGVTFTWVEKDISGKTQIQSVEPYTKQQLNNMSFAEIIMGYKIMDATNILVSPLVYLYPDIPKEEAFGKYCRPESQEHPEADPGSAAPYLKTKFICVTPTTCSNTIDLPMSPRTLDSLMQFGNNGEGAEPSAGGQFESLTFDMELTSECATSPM

The first experiment has as its target T1, pSTAT3 (pY705-STAT3) (Homo sapiens, UniProt P40763).
T1 construct: host or cells: cryopreserved PBMC
The experiment can be described thus: MSD-pSTAT-PBMC Assay (pSTAT3, IL-6 stimulated). Type of experiment: cell-based.
Conditions: not given
An excerpt: Cryopreserved Peripheral Blood Mononuclear Cells (PBMC) are from AllCells. Recombinant Human IL-4 and IL-6 are from Peprotech. Mouse monoclonal anti-STAT3 antibody, rabbit monoclonal anti-pY705-STAT3 antibody, rabbit monoclonal Anti-pY641-STAT6 antibody, and lysis buffer are from Cell Signaling Technology (CST). Mouse monoclonal anti-STAT6 antibody is from BioLegend. Assay plates, blocker, and anti-rabbit secondary antibody are from Meso Scale Discovery (MSD).
Cryopreserved PBMCs were thawed out and allowed to recover overnight in IMDM+10% heat-inactivated FBS prior to plating 50,000 (STAT3) or 25,000 (STAT6) cells per well in 96-well U-bottom tissue culture plates. Cells were treated with compound for 3 hrs, then stimulated with 10 ng/mL IL-6 (STAT3) or 1 ng/mL IL-4 (STAT6) for 10 min. Cells were then spun down and washed with ice-cold PBS prior to lysing the cell pellet with 1× lysis buffer (CST) with 1× HALT protease and phosphatase inhibitor cocktail (Thermo). Lysates were transferred to and incubated overnight at 4° C. with shaking in QuickPlex 96-well high bind assay plates (MSD) pre-coated overnight with 30 μL per well of 0.6 μg/mL mouse monoclonal anti-STAT3 antibody (STAT3) or 2 μg/mL mouse monoclonal anti-STAT6 antibody (STAT6) in 1×PBS, and pre-blocked for 1 hour with 3% Blocker-A (MSD). Captured protein in the assay plates were then washed and probed with 25 μL per well of 0.25 μg/ml rabbit monoclonal anti-pY705-STAT3 antibody (STAT3) or 0.18 μg/ml rabbit monoclonal Anti-pY641-STAT6 antibody (STAT6) in 1% Blocker-A for 1 hour at room temperature with shaking, then washed and probed with 25 ul per well of 1 ug/mi Sulfo-TAG Labeled Goat Anti-Rabbit Antibody (MSD) in 1% Blocker-A for 1 hour at room temperature with shaking. Assay plates were then washed and 150 μL of 1× Read Buffer-T (MSD) was added to each well prior to reading on an SQ120 MSD Plate Reader. Assay signal from each sample was subtracted by the signal from unstimulated control wells and normalized to DMSO control wells. IC50 values were calculated using Graph Pad Prism Dose-Response Nonlinear Regression with variable slope. For both pSTAT3 and pSTAT6 A=≤100 nM; B=>100-1000 nM; C=>1000-3000 nM; and D=>3 μM.
Compound `O=C(N[C@H]1C[C@@H]2C[C@@H]2C[C@H]2CC[C@@H](C(=O)N3CC(C(=O)N4CCOCC4)C3)N2C1=O)c1cc2cc(C(F)(F)P(=O)(N[C@@H](CCc3ccccc3)C(=O)OCc3ccccc3)Oc3ccccc3)ccc2s1` (stereo partly drawn) [Compound 159, benzyl (2S)-2-(((difluoro(2-(((3S,6S,7aS, 8aR,9aR)-3-(3-(morpholine-4-carbonyl)azetidine-1-carbonyl)-5-oxodecahydro-1H-cyclopropa[d]pyrrolo[1,2-a]azocin-6-yl)carbamoyl)benzo[b]thiophen-5-yl)methyl) (phenoxy)phosphoryl)amino)-4-phenylbutanoate] came in with an IC50 above 3 µM.

Staying with this experiment, now noted: PBMC, compound 3 hrs, then 10 ng/mL IL-6 for 10 min; MSD pY705-STAT3; read-out: pSTAT3.
Turning to `CC(C)OC(=O)[C@H](C)NP(=O)(Cc1ccc2sc(C(=O)N[C@H]3C[C@@H]4C[C@@H]4C[C@H]4CC[C@@H](C(=O)N5CC(C(=O)N6CCOCC6)C5)N4C3=O)cc2c1)N[C@@H](C)C(=O)OC(C)C` [Compound 147, diisopropyl 2,2′-((((2-(((3S,6S,7aS, 8aR,9aR)-3-(3-(morpholine-4-carbonyl)azetidine-1-carbonyl)-5-oxodecahydro-1H-cyclopropa[d]pyrrolo[1,2-a]azocin-6-yl)carbamoyl)benzo[b]thiophen-5-yl)methyl)phosphoryl)bis(azanediyl)) (2S,2′S)-dipropionate], the IC50 is above 3 µM.
Still for that read-out and setting: the result for `CC(C)OC(=O)[C@H](C)NP(=O)(Oc1ccccc1)C(F)c1ccc2sc(C(=O)N[C@H]3C[C@@H]4C[C@@H]4C[C@H]4CC[C@@H](C(=O)N5CC(C(=O)N6CCOCC6)C5)N4C3=O)cc2c1` (stereo partly drawn) [Compound 153, isopropyl ((fluoro(2-(((3S,6S,7aS, 8aR,9aR)-3-(3-(morpholine-4-carbonyl)azetidine-1-carbonyl)-5-oxodecahydro-1H-cyclopropa[d]pyrrolo[1,2-a]azocin-6-yl)carbamoyl)benzo[b]thiophen-5-yl)methyl)phenoxy) phosphoryl)-L-alaninate] reads 0.1 to 1 µM; that for `CCOC(=O)[C@H](C)NC(=O)OCOP(=O)(Cc1ccc2sc(C(=O)N[C@H]3C[C@@H]4C[C@@H]4C[C@H]4CC[C@@H](C(=O)N5CC(C(=O)N6CCOCC6)C5)N4C3=O)cc2c1)OCOC(=O)N[C@@H](C)C(=O)OCC` [Compound 160, diethyl 2,2′-((((((((2-(((3S, 6S,7aS,8aR, 9aR)-3-(3-(morpholine-4-carbonyl)azetidine-1-carbonyl)-5-oxodecahydro-1H-cyclopropa [d]pyrrolo[1,2-a]azocin-6-yl)carbamoyl)benzo[b]thiophen-5-yl)methyl)phosphoryl)bis(oxy))bis(methylene))bis(oxy))bis(carbonate))bis(azanediyl)) (2S,2′S)-dipropionate], above 3 µM.
Still for that read-out and setting: the result for `CC(C)C[C@H](NP(=O)(Oc1ccccc1)C(F)(F)c1ccc2sc(C(=O)N[C@H]3C[C@@H]4C[C@@H]4C[C@H]4CC[C@@H](C(=O)N5CC(C(=O)N6CCOCC6)C5)N4C3=O)cc2c1)C(=O)OCc1ccccc1` (stereo partly drawn) [Compound 163, benzyl ((difluoro(2-(((3S,6S,7aS, 8aR,9aR)-3-(3-(morpholine-4-carbonyl)azetidine-1-carbonyl)-5-oxodecahydro-1H-cyclopropa[d]pyrrolo[1,2-a]azocin-6-yl)carbamoyl)benzo[b]thiophen-5-yl)methyl) (phenoxy)phosphoryl)-L-leucinate] reads 1 to 3 µM.
Still for that read-out and setting: the result for `CC(C)CC(=O)SCCOP(=O)(N[C@@H](C)C(=O)OCc1ccccc1)C(F)(F)c1ccc2sc(C(=O)N[C@H]3C[C@@H]4C[C@@H]4C[C@H]4CC[C@@H](C(=O)N5CC(C(=O)N6CCOCC6)C5)N4C3=O)cc2c1` (stereo partly drawn) [Compound 164, benzyl ((difluoro(2-(((3S,6S,7aS, 8aR,9aR)-3-(3-(morpholine-4-carbonyl)azetidine-1-carbonyl)-5-oxodecahydro-1H-cyclopropa [d]pyrrolo[1,2-a]azocin-6-yl)carbamoyl)benzo[b]thiophen-5-yl)methyl)(2-((3-methyl-butanoyl)thio)ethoxy)phosphoryl)-L-alaninate] reads above 3 µM.
